We go through ten compounds from patent US20260085062A1, “NOVEL COMPOUNDS AS CK2 INHIBITORS” (Cambridge Enterprise Limited, priority 2022, published 2026).

Assay [1] has as its target T1, CLK2 (Homo sapiens, UniProt P49760).
T1 construct: purchased Carna Biosciences 04-127
Briefly: Biochemical assay for inhibitors of CLK2 kinase activity (ADP-Glo). The settings on record: 20 nM CLK2, 50 μM peptide substrate, 100 μM ATP, read-out: Assay 2: CLK2 Enzyme IC50.

Assay [2] addresses T2, CK2α (Homo sapiens, UniProt P68400).
T2 construct: CK2α (residues 2-329) was produced in Escherichia coli BL21 (DE3) for kinase activity screening; His6 (N, cleaved yes); made in house; host or cells: Escherichia coli BL21 (DE3)
T2 sequence (P68400 2-329): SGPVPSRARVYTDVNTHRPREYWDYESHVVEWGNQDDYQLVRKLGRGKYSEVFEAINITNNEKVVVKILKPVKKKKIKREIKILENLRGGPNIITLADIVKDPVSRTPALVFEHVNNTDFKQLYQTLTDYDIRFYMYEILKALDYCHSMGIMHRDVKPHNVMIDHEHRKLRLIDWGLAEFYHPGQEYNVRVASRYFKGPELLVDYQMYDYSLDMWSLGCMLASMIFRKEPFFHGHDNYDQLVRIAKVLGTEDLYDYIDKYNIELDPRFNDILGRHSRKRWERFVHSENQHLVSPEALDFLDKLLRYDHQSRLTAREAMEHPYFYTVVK
The assay is described as follows: Biochemical assay for inhibitors of CK2α kinase activity (ADP-Glo). Particulars: 0.2 nM CK2α, 50 μM peptide substrate, 15 μM ATP, read-out: Assay 1: CK2α Enzyme IC50. A general note: ADP-Glo turns the ADP formed in a reaction into a luminescent signal.

Assay [3] addresses T3, intracellular CK2α (Homo sapiens, UniProt P19784).
T3 construct: host or cells: HCT116 (ATCC CCL-247)
Briefly: Cell-based NanoBRET assay for inhibitor binding to intracellular CK2α. The settings on record: HCT116 cells transiently transfected with CSNK2A2-NanoLuc fusion vector; Tracer K-5; 2 h; read-out: Assay 3: NanoBRET ™ assay for binding to intracellular CK2α. The procedure, abridged:
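Living cells expressing NanoLuc-CK2α fusion were given a fixed tracer concentration, and compounds competitively displaced the reversibly bound tracer. Donor (450 nm) and acceptor (610 or 630 nm) emissions were read; BRET ratio = (acceptor/donor)×1,000, giving apparent intracellular affinity.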
(In general: In BRET a luciferase serves as donor, and the signal depends on an acceptor being close.)

T3 sequence (P19784 whole entry): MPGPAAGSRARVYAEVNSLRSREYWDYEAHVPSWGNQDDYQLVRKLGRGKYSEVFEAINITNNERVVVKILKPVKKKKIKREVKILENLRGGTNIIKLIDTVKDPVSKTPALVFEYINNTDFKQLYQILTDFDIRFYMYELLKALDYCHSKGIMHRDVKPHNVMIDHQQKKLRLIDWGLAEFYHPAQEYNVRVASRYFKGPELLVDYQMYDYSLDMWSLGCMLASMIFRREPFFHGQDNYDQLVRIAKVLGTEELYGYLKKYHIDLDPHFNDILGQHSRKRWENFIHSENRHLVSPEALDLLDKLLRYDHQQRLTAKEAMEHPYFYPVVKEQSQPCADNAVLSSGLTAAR
T1 sequence (P49760 whole entry): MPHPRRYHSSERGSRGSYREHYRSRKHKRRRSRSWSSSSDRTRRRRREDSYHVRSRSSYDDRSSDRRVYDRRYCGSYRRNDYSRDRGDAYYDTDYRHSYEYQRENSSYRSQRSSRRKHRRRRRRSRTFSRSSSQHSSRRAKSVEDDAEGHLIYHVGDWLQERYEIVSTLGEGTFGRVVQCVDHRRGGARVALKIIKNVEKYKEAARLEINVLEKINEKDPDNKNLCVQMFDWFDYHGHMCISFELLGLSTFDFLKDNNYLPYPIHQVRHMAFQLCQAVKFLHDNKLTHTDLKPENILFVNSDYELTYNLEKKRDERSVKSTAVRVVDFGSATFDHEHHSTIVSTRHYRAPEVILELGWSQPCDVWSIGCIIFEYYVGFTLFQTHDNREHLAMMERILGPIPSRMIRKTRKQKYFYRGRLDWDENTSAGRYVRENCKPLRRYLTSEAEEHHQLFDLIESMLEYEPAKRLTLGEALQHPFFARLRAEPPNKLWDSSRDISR

In the case of `c1cc(-c2cc(NCCOCCCCNCc3cc4cc(OC5CCC5)ccc4[nH]3)c3cn[nH]c3c2)cnn1` [Example 57, N-(2-(4-(((5-cyclobutoxy-1H-indol-2-yl)methyl)amino)butoxy)ethyl)-6-(pyridazin-4-yl)-1H-indazol-4-amine], the results for the IC50 in assay [1], in assay [2] and in assay [3] were 781 nM, 0.6 nM and 69.8 nM, respectively.
In the case of `O=C(CCNCc1ccc(-c2ccccc2CO)c(Cl)c1)NCCCNc1cc(-n2cnnc2)cc2[nH]ncc12` [Example 58, N-(3-((6-(4H-1,2,4-triazol-4-yl)-1H-indazol-4-yl)amino)propyl)-3-(((2-chloro-2′-(hydroxymethyl)-[1,1′-biphenyl]-4-yl)methyl)amino)propanamide], the figures for the IC50 in assay [1], in assay [2] and in assay [3] were 40.9 nM, 0.28 nM and 9290 nM, respectively.
The like results for `O=C(CCNCc1ccc(-c2ccccc2)c(Cl)c1)NCCCNc1cccc2[nH]ncc12` [Example 61, N-(3-((1H-indazol-4-yl)amino)propyl)-3-(((2-chloro-[1,1′-biphenyl]-4-yl)methyl)amino)propenamide] were, in that order, 3470 nM, 104 nM and 176 nM.
Consider `CN(C)C(=O)c1cc(NCCCNC(=O)CCNCc2ccc(-c3ccccc3)c(Cl)c2)c2cn[nH]c2c1` [Example 62, 4-((3-(3-(((2-chloro-[1,1'-biphenyl]-4-yl)methyl)amino)propanamido)propyl)amino)-N,N-dimethyl-1H-indazole-6-carboxamide], for which the IC50 in assay [1] turned out to be 14300 nM; in assay [2], 182 nM; in assay [3] it was 29600 nM.
The like results for `O=C(CCNCc1ccc(-c2ccccc2)c(Cl)c1)NCCCNc1cc(CO)cc2[nH]ncc12` [Example 63, 3-(((2-chloro-[1,1′-biphenyl]-4-yl)methyl)amino)-N-(3-((6-(hydroxymethyl)-1H-indazol-4-yl)amino)propyl)propanamide] were, in that order, 2370 nM, 68.3 nM and 4980 nM.
Take `FC(F)(F)Oc1ccc(CNCCc2ncc(CCNc3cc(-n4cnnc4)cc4[nH]ncc34)o2)cc1Cl` [Example 64, N-(2-(2-(2-((3-chloro-4-(trifluoromethoxy)benzyl)amino)ethyl)oxazol-5-yl)ethyl)-6-(4H-1,2,4-triazol-4-yl)-1H-indazol-4-amine]: the IC50 in assay [1] was 350 nM; in assay [2], 7.88 nM; in assay [3], 1840 nM.
For `O=C(Cc1nnc(CCNCc2ccc(OC(F)(F)F)c(Cl)c2)[nH]1)Nc1cc(-n2cnnc2)cc2[nH]ncc12` [Example 65, N-(6-(4H-1,2,4-triazol-4-yl)-1H-indazol-4-yl)-2-(5-(2-((3-chloro-4-_(trifluoromethoxy)benzyl)amino)ethyl)-4H-1,2,4-triazol-3-yl)acetamide] the same measures were 4160 nM, 163 nM and more than 50000 nM.
For `O=C(CCNCCCNCc1ccc(OC(F)(F)F)c(Cl)c1)Nc1cc(-n2cnnc2)cc2[nH]ncc12` [Example 66, N-(6-(4H-1,2,4-triazol-4-yl)-1H-indazol-4-yl)-3-((3-((3-chloro-4-(trifluoromethoxy)benzyl)amino)propyl)amino)propanamide] the same measures were 1000 nM, 176 nM and 15600 nM.
Turning to `FC(F)(F)Oc1ccc(CNCCCNCCCOc2cc(-n3cnnc3)cc3[nH]ncc23)cc1Cl` [Example 67, N1-(3-((6-(4H-1,2,4-triazol-4-yl)-1H-indazol-4-yl)oxy)propyl)-N3-(3-chloro-4-(trifluoromethoxy)benzyl)propane-1,3-diamine], the IC50 was 4160 nM in assay [1], 278 nM in assay [2] and 13800 nM in assay [3].
The like results for `Cn1c(CNCCCCOCCNc2cc(-n3cnnc3)cc3[nH]ncc23)nc2ccc(Cl)cc21` [Example 68, N-(2-(4-(((6-chloro-1-methyl-1H-benzo[d]imidazol-2-yl)methyl)amino)butoxy)ethyl)-6-(4H-1,2,4-triazol-4-yl)-1H-indazol-4-amine] were, in that order, 566 nM, 136 nM and 18700 nM.
